≈ marks a conversion by molar mass, not a printed value. Where two headings read alike, the source gives them in different places.
How the values were obtained:
[1] = tested on: Escherichia coli MG1655; assay: Antibiotic MIC determination (serial twofold dilutions, OD600 during 17 hours at 37° C.); type: cell-based; conditions: 37° C.; for MIC: Escherichia coli
Procedure: The Minimal Inhibitory Concentration (MIC) of the antibiotics was determined under the same culture conditions as the tests using the ATP assay kit. […] An exponentially growing culture (OD600=0.3) was added to each well (60 μl/well) of a sterile microtiter plate containing the test concentration of antibiotic (40 μl/well). The volume was completed to 120 μl with medium and OD600 nm measurements were performed using a microtiter plate reader (Infinite 200 PRO, TECAN) during 17 hours at 37° C.
In all the following experiments, the MIC values were measured for each antibiotic with parameters such as temperature, OD600 and equipment identical to those used for the bioluminescence assay.

[2] = tested on: E. coli MG1655 reporter cells; type: cell-based, Escherichia coli; conditions: for Intensity of ATP release signal in minimal medium compared to rich medium (factor of decrease): MOPS minimal medium vs LB
Procedure: The classical luciferase was from Molecular Probes (ATP Determination Kit (A22066)). The thermostable luciferase was from “CheckLite AT100” (kikkoman). The Luciferin-luciferase reagents were prepared following manufacturer instructions. Bacteria from exponentially growing cultures (OD600=0.3) were added to each well (60 μl/well) of a black 96-microtiter plate (Greiner Bio-one, 655076) and 20 μl of the luciferin-luciferase reagent solution was added. The microtiter plate was incubated 5 min at 37° C. for reaction with the luciferase to eliminate traces of extracellular ATP. Then 40 μl of antibiotic solution (3 times concentrated) prepared in the culture medium were added. Bioluminescence of each well was monitored for 4 hours under shaking (218 rpm) and at 28 or 37° C., depending on the experiments (see legends of Figures). The reagent stability in presence or absence of antibiotics was checked in control experiments without bacteria but with 4 pmoles of ATP. Tests were also performed in 384-microtiter plates (Greiner Bio-one, 784076).
Aminoglycosides are bactericidal antibiotics causing translational miscoding with lethal consequences for the cell. Leakage of small molecules following an aminoglycoside shock was previously identified by different methods including radiolabelling. Therefore, the inventors investigated the response of live cells to aminoglycoside stress.

[3] = MOPS minimal medium glucose 0.4%
[4] = MOPS minimal medium (glucose 0.4%), FIG. 11
[5] = antibiotic at 6.25 μg/mL, LB, 37° C.
[6] = antibiotic at 12.5 μg/mL, LB, 37° C.
[7] = MG1655, read-out: MIC in MOPS glucose 0.4%, MOPS minimal medium glucose 0.4%
[8] = MG1655, LB medium, OD600 0.15 final, read-out: MIC in LB
[9] = antibiotic at 3.125 μg/mL, LB, 37° C.
[10] = antibiotic at 25 μg/mL, LB, 37° C.
[11] = antibiotic at 50 μg/mL, LB, 37° C.
[12] = antibiotic at 100 μg/mL, LB, 37° C.
[13] = antibiotic at 200 μg/mL, LB, 37° C.

| Molecule | Shape of ATP release trace ([2]; LB medium, 37° C., FIG. 8) | Lag time before ATP [2, 5] | Lag time before ATP [2, 6] | MIC [1, 7] | MIC [1, 8] | Lag time before ATP [2, 9] | Lag time before ATP [2, 10] | Lag time before ATP [2, 11] | Lag time before ATP [2, 12] | other results |
| --- | --- | --- | --- | --- | --- | --- | --- | --- | --- | --- |
| Gentamicin | bi-phasic | 16.2 min | 12.9 min | – | – | – | – | – | – | MIC in LB ([1]; LB medium, OD600 0.15 final): 5.7 µg/mL; MIC in MOPS glucose 0.4% [1, 3]: 0.6 µg/mL; Shape of ATP release trace [2, 4]: monophasic; Lag time before ATP ([2]; antibiotic at 0.19 μg/mL, LB, 37° C.): 136.1 min; Lag time before ATP ([2]; antibiotic at 0.39 μg/mL, LB, 37° C.): 136.3 min; Lag time before ATP ([2]; antibiotic at 0.78 μg/mL, LB, 37° C.): 67.1 min; Lag time before ATP ([2]; antibiotic at 1.56 μg/mL, LB, 37° C.): 54.0 min; Lag time before ATP ([2]; antibiotic at 3.12 μg/mL, LB, 37° C.): 30.2 min |
| CO[C@H]1/C=C/O[C@@]2(C)Oc3c(C)c(O)c4c(O)c(c(/C=N/N5CCN(C)CC5)c(O)c4c3C2=O)NC(=O)/C(C)=C\C=C\[C@H](C)[C@H](O)[C@@H](C)[C@@H](O)[C@@H](C)[C@H](OC(C)=O)[C@@H]1C [Rifampicin] | – | 63.8 min | 57.1 min | 25 µg/mL (≈ 30.4 µM) | 50 µg/mL (≈ 60.8 µM) | 67 min | 38 min | 34.8 min | 34.6 min | Lag of ATP leakage ([2]; LB, FIG. 9): about 30 minutes |
| CO[C@@]1(NC(=O)Cc2cccs2)C(=O)N2C(C(=O)O)=C(COC(N)=O)CS[C@@H]21 [Cefoxitin] | – | – | 10.9 min | 100 µg/mL (≈ 234 µM) | 50 µg/mL (≈ 117 µM) | – | 6.1 min | 4.9 min | 4.9 min | Lag time before ATP [2, 13]: 4.9 min |
| O=C(N[C@H](CO)[C@H](O)c1ccc([N+](=O)[O-])cc1)C(Cl)Cl [Chloramphenicol] | – | – | – | 25 µg/mL (≈ 77.4 µM) | 25 µg/mL (≈ 77.4 µM) | – | – | – | – | ATP leakage ([2]; high concentrations, twice or four times the MIC, LB, FIG. 9): important leakage |
| C=CC1=C(C(=O)O)N2C(=O)[C@@H](NC(=O)/C(=N\OCC(=O)O)c3csc(N)n3)[C@H]2SC1 [Cefixime] | – | – | 17.5 min | 50 µg/mL (≈ 110 µM) | 50 µg/mL (≈ 110 µM) | – | 16.7 min | 15.2 min | 14.9 min | Lag time before ATP [2, 13]: 14.2 min |
| CC1(C)S[C@@H]2[C@H](NC(=O)[C@H](N)c3ccccc3)C(=O)N2[C@H]1C(=O)O [Ampicillin] | multiphasic | 108 min | 43 min | 25 µg/mL (≈ 71.5 µM) | 25 µg/mL (≈ 71.5 µM) | – | 23 min | 13 min | 9 min | Intensity of ATP release signal in minimal medium compared to rich medium (factor of decrease) [2]: 10; Lag before ATP release (shortest, incompressible value) ([2]; highest concentrations tested, LB, 37° C.): 9 min |
| Polymyxin B | bi-phasic | – | – | – | – | – | – | – | – | MIC in LB ([1]; LB medium, OD600 0.15 final): 8 µg/mL; MIC in MOPS glucose 0.4% [1, 3]: 4 µg/mL; Dose at which the amplitude of the initial burst was maximal ([2]; LB, FIG. 8): 4 µg/mL; Shape of ATP release trace [2, 4]: monophasic; Intensity of ATP release signal in minimal medium compared to rich medium (factor of decrease) [2]: 3; Lag before ATP release ([2]; above the concentration of 4 μg/ml, LB): < 2.4 min; Lag time before ATP ([2]; antibiotic at 2 μg/mL, LB, 37° C.): 5.3 min; Lag time before ATP ([2]; antibiotic at 4 μg/mL, LB, 37° C.): 2.4 min; Lag time before ATP ([2]; antibiotic at 8 μg/mL, LB, 37° C.): < 2.4 min; Lag time before ATP ([2]; antibiotic at 16 μg/mL, LB, 37° C.): < 2.4 min; Lag time before ATP ([2]; antibiotic at 32 μg/mL, LB, 37° C.): < 2.4 min |
| NCC[C@H](O)C(=O)N[C@@H]1C[C@H](N)[C@@H](O[C@H]2O[C@H](CN)[C@@H](O)[C@H](O)[C@H]2O)[C@H](O)[C@H]1O[C@H]1O[C@H](CO)[C@@H](O)[C@H](N)[C@H]1O [Amikacin] | bi-phasic | 31.0 min | 21.6 min | 1.56 µg/mL (≈ 2.66 µM) | 12.5 µg/mL (≈ 21.3 µM) | 42 min | 16.0 min | 10.5 min | – | – |
| CO/N=C(\C(=O)N[C@@H]1C(=O)N2C(C(=O)O)=C(CSc3nc(=O)c(=O)[nH]n3C)CS[C@H]12)c1csc(N)n1 [Ceftriaxone] | – | 21.2 min | 19.2 min | 6.25 µg/mL (≈ 11.3 µM) | 12.5 µg/mL (≈ 22.5 µM) | 29.7 min | 16.5 min | 13.9 min | – | – |

Reference: patent publication US12595504B2, “Methods for screening compounds for bactericidal activity and for determining the sensitivity of bacterial samples” (priority 2020, dated 2026)
